# Where “and” joins values, the source holds several entries; their conditions need not be identical. Equal entries are not always repeated. Entries after “also recorded” stand apart in the source; their conditions may differ. Where two headings read alike, the source gives them in different places.
# Key:
# HEBSC from 3×Tg-AD mice = test: Hippocampal-entorhinal brain slice culture (HEBSC) from 3×Tg-AD mice, lipid / Aβ / LysoTracker staining; format: cell-based, mouse; conditions: for effect on ethanol-induced increase in cytosolic lipid / effect on ethanol-induced increase in intraneuronal Aβ: with ethanol
# Procedure: HEBSC was performed using techniques routinely used in the laboratory^2,9,11 Briefly, sections were prepared from either the P7 or adult (6 mo) 3×-Tg-AD hippocampal-entorhinal cortex formation as described by Stoppini et al^16. […] Mice were decapitated, brains extracted and the hippocampal-entorhinal complex dissected in Gey's bugger (Sigma-Aldrich). Slices were cut transversely at 375 μm using a McIlwain tissue chopper and placed on Millicell culture inserts (Millipore, PICMORG50, up to 13 slices per insert). Slices acclimated in culture media (MEM plus 24 mM HEPES and Hank's salts, 25% horse serum, 5.5 g/L glucose, 2 mM L-glutamine) in a humified 5% CO2 incubator for seven days, followed by 12% horse serum for four days, and 6% horse serum until the completion of the experiments.
# CX3CR1Cre^ERT.hM4di mice = test: Microglial Gi DREADD inhibition in CX3CR1Cre^ERT.hM4di mice given ethanol +/- CNO; format: in vivo, mouse; conditions: ten days of ethanol +/- CNO
# Procedure: For in vivo studies, heterozygous CX3CR1.Cre^ERT.hM4di were treated with tamoxifen (75 mg/kg/d, i.p.) for 5 days during adulthood (12 weeks of age).
# [1] = 5 g/kg/d i.g., 20% ethanol w/v, at 1 hour; cited from earlier work
# 3×Tg-AD mice [2] = test system: 3×Tg-AD mice
# Procedure: (§1) Western blot was performed as reported previously^9,10. Brain tissue from the cerebral cortex was homogenized in lysis buffer (Tris-HCl, pH 7.5, Sucrose, EDTA, EGTA, 1% Triton X-100, protease, and phosphatase inhibitors). […] of protein were loaded into each lane on SDS polyacrylamide gels and were transferred to PVDF membranes. Membranes were washed in TBS and blocked for 1 hour at room temperature (Li-Cor Blocking Solution; 92760001) then were incubated overnight at 4° Celsius with primary antibodies (Table 1). Membranes were washed in TBS with 0.1% Tween-20 (Sigma-Aldrich, St. Louis, MO) then were incubated in the appropriate conjugated secondary antibody (Rockland H & L Pre-absorbed). Membranes were washed again in TBS and visualized using LiCor Image Studio Lite Ver 5.2. Western Blots were analyzed using Image Studio Lite software and each protein of interest was normalized to housekeeping protein GAPDH. […] The protein of interest was normalized to GAPDH for each sample and the percentage change relative to controls was calculated for each blot.
# WT mice [3] = conditions: WT cortex, 10-mo mice, ethanol 5 weeks
# Procedure: as §1
# 3×Tg-AD mice [4] = test system: 3×Tg-AD mice; remark: listed apart in the source
# Source text: mRNA was extracted from frozen cortex or hippocampus as reported^10. Briefly, samples were homogenized with Trizol (Invitrogen) and RNA was isolated by chloroform extraction, followed by reverse transcription as described previously 11. SYBR green PCR master mix (Applied Biosystems, Foster City, CA) was used for qRT-PCR analysis. Primer sequences were designed using the National Library of Medicine Primer-BLAST tool or were obtained from PrimerBank database (Table 1) 12-14. Only primers with no predicted non-specific targets and single peak melt curves were used. Genes of interest were normalized to the expression of the reference gene 18S using the cycle threshold (Ct) value of each target gene product. The ΔΔCt method was used to compare relative differences between control and treatment groups, and the ratio by 18S or the percent change relative to 18S were used in analysis.
# 3×Tg-AD mice [5] = test system: 3×Tg-AD mice; remark: listed apart in the source
# WT mice [6] = test system: WT mice
# [7] = HEBSC from adult 3×Tg-AD mice, ENT region
# [8] = 3×Tg-AD cortex, listed as ethanol
molecule,measurement,setting,value
O=c1c(-c2ccc(O)cc2)coc2cc(O)cc(O)c12 [genistein],effect on ethanol-induced increase in cytosolic lipid,HEBSC from 3×Tg-AD mice; HEBSC from 3×Tg-AD mice,did not abolish; also recorded: did not reduce; also recorded: no effect
C[N+]1([O-])CCN(C2=Nc3cc(Cl)ccc3Nc3ccccc32)CC1 [CNO],effect on ethanol-induced increase in cytosolic lipid,HEBSC from 3×Tg-AD mice; HEBSC from 3×Tg-AD mice,prevented
same,effect on ethanol-induced proinflammatory activation of microglia in ENT (IF),CX3CR1Cre^ERT.hM4di mice,prevented
same,effect on ethanol-induced increases in total and neuronal lipid,CX3CR1Cre^ERT.hM4di mice; ENT,prevented
O=C(Oc1nsnc1N1CCCCC1)N1CCCCC1 [LAListat],effect on cytosolic lipid levels,HEBSC from 3×Tg-AD mice; [7],concentration-dependent increase; also recorded: dose-dependent increase
same,effect on intraneuronal Aβ in ENT,HEBSC from 3×Tg-AD mice; [7],concentration-dependent increase; also recorded: dose-dependent increase
"CCO [Ethanol, ethanol]",peak blood alcohol concentration,[1],~ 290 mg/dL and ~ 280 mg/dL
same,increase in Aβ,"HEBSC from 3×Tg-AD mice; HEBSC, ethanol",2 fold
same,increase in cytosolic lipid,"HEBSC from 3×Tg-AD mice; HEBSC, ethanol",2 fold
same,reduction of lysosomal acidification (LysoTracker red),"HEBSC from 3×Tg-AD mice; ethanol 100 mM, 4 days",50%
same,increase of active p-Tyr216 GSK3β,3×Tg-AD mice [2]; 3×Tg-AD,17%
same,reduction of inactive pSer9 GSK3β,3×Tg-AD mice [2]; 3×Tg-AD,15.6%
same,effect on BACE1 levels,3×Tg-AD mice [2]; 3×Tg-AD cortex,no effect
same,effect on PSEN1 levels,3×Tg-AD mice [2]; 3×Tg-AD cortex,no effect
same,increase in LAMP1 protein,3×Tg-AD mice [2]; 3×Tg-AD cortex,26%
same,increase in LC3 (LC3-II) protein,3×Tg-AD mice [2]; 3×Tg-AD cortex,20%
same,increase in P62 protein,3×Tg-AD mice [2]; 3×Tg-AD cortex,20%
same,increase in p-mTOR,3×Tg-AD mice [2]; 3×Tg-AD cortex,~ 2 fold
same,reduction in Beclin-1 protein,3×Tg-AD mice [2]; 3×Tg-AD cortex,14%
same,reduction in LAL protein,3×Tg-AD mice [2]; 3×Tg-AD cortex,19%
same,reduction in TFEB protein,3×Tg-AD mice [2]; 3×Tg-AD cortex,20%
same,increase in p-mTOR,3×Tg-AD mice [2]; [8],2 fold
same,reduction in Beclin-1 protein,3×Tg-AD mice [2]; [8],20%
same,"increase in LAMP1, females",WT mice [3],~ 33%
same,"reduction in Beclin-1 protein, females (trend, p=0.08)",WT mice [3],13%
same,"reduction in Beclin-1 protein, males",WT mice [3],12%
same,reduction in LC3A/B,WT mice [3],12%
same,"increase in P62 protein, females",WT mice [3]; not altered in males,33%
same,LAL (LIPA) gene expression,3×Tg-AD mice [4]; 3×Tg-AD,reduced
same,"effect on hMAPT expression, cortex or hippocampus",3×Tg-AD mice [4]; 3×Tg-AD,No effect
same,"effect on expression of human APP (hAPP) transgene, cortex",3×Tg-AD mice [4]; 3×Tg-AD cortex,no effect
same,"increase in hAPP expression, male hippocampus","3×Tg-AD mice [4]; 3×Tg-AD males, no change in females",38%
same,increase in TUNEL+ neurodegeneration in ENT,3×Tg-AD mice [5]; 3×Tg-AD,2.5 fold and 3 fold
same,"increase in cytosolic lipid (LipidSpot), ENT",3×Tg-AD mice [5]; 3×Tg-AD,88%
same,"increase in cytosolic lipid (LipidSpot), FCX",3×Tg-AD mice [5]; 3×Tg-AD,38%
same,"increase in extra-lysosomal cytoplasmic Aβ, ENT",3×Tg-AD mice [5]; 3×Tg-AD,1.9 fold
same,"increase in extra-lysosomal cytoplasmic Aβ, FCX",3×Tg-AD mice [5]; 3×Tg-AD,1.8 fold
same,"increase in intraneuronal Aβ (IF), ENT",3×Tg-AD mice [5]; 3×Tg-AD,59%
same,"increase in intraneuronal Aβ (IF), FCX",3×Tg-AD mice [5]; 3×Tg-AD,52%
same,"increase in lipid within Aβ+ neurons, ENT",3×Tg-AD mice [5]; 3×Tg-AD,2.2 fold
same,"increase in lipid within Aβ+ neurons, FCX",3×Tg-AD mice [5]; 3×Tg-AD,75%
same,"increase in lysosomal lipid in Aβ+ neurons, ENT",3×Tg-AD mice [5]; 3×Tg-AD,3.3 fold
same,"increase in lysosomal lipid in Aβ+ neurons, FCX",3×Tg-AD mice [5]; 3×Tg-AD,~ 75% and 75%
same,"increase in lysosomes in Aβ+ neurons, FCX and ENT",3×Tg-AD mice [5]; 3×Tg-AD,2 fold
same,increase in p-tau181 in FCX,3×Tg-AD mice [5]; 3×Tg-AD,40%
same,increase in p-tau-181 in CA1 and FCX,3×Tg-AD mice [5]; 3×Tg-AD,40%
same,reduction in total LAL in ENT and SUB,3×Tg-AD mice [5]; 3×Tg-AD,~50%
same,"increase in Aβ plaques, female subiculum, dorsal",3×Tg-AD mice [5]; 3×Tg-AD females,91%
same,"increase in Aβ plaques, female subiculum, ventral",3×Tg-AD mice [5]; 3×Tg-AD females,127%
same,increase in amyloid plaques in SUB,3×Tg-AD mice [5]; 3×Tg-AD females,2 fold
same,Aβ1-42 in FCX,"3×Tg-AD mice [5]; 3×Tg-AD, both sexes",increased
same,"increase in pathogenic intraneuronal Aβ1-42 in ENT, FCX and SUB","3×Tg-AD mice [5]; 3×Tg-AD, both sexes",55-60%
same,increase in microglial (Iba-1+) lipid,"3×Tg-AD mice [5]; 3×Tg-AD, chronic ethanol",2 fold and ~ 2 fold
same,"increase in LAMP1+ lysosomes in Aβ-containing neurons, FCX","3×Tg-AD mice [5]; 3×Tg-AD, ethanol-treated females",~ 2 fold
same,increase in intraneuronal Aβ1-42 in ENT,"3×Tg-AD mice [5]; 3×Tg-AD, midlife ethanol vs control",57%
same,"increase in cytosolic lipid (LipidSpot), ENT","3×Tg-AD mice [5]; 3×Tg-AD, listed as EtOH",80%
same,"reduction of Aβ lysosomal:extra-lysosomal cytoplasmic (lyso:cyto) ratio, FCX and ENT","3×Tg-AD mice [5]; 3×Tg-AD, stated for ethanol and obesity together",~ 20%
same,increase in total Aβ in ENT,WT mice [6]; 5 weeks ethanol,36%
same,increase in lipid levels in ENT,WT mice [6]; chronic ethanol,83%
same,increase in lysosomal lipid in ENT,WT mice [6]; chronic ethanol,~ 2 fold
same,increase in lysosomal lipid in ENT,"WT mice [6]; chronic ethanol, listed as ethanol",2.5 fold
"rLAL: recombinant lysosomal acid lipase / sebelipase (protein, UniProt P38571 77-399, looked up) Lysosomal acid …: GPKPVVFLQHGLLADSSNWVTNLANSSLGFILADAGFDVWMGNSRGNTWSRKHKTLSVSQDEFWAFSYDEMAKYDLPASINFILNKTGQEQVYYVGHSQGTTIGFIAFSQIPELAKRIKMFFALGPVASVAFCTSPMAKLGRLPDHLIKDLFGDKEFLPQSAFLKWLGTHVCTHVILKELCGNLCFLLCGFNERNLNMSRVDVYTTHSPAGTSVQNMLHWSQAVKFQKFQAFDWGSSAKNYFHYNQSYPPTYNVKDMLVPTAVWSGGHDWLADVYDVNILLTQITNLVFHESIPEWEHLDFIWGLDAPWRLYNKIINLMRKYQ",reduction of baseline Aβ levels,HEBSC from 3×Tg-AD mice; HEBSC from 3×Tg-AD mice,50%
same,effect on ethanol-induced increase in cytosolic lipid,HEBSC from 3×Tg-AD mice; HEBSC from 3×Tg-AD mice,blocked
same,effect on ethanol-induced increase in intraneuronal Aβ,HEBSC from 3×Tg-AD mice; HEBSC from 3×Tg-AD mice,abolished
same,effect on ethanol-induced increase in intraneuronal Aβ,"HEBSC from 3×Tg-AD mice; HEBSC from 3×Tg-AD mice, listed as Recombinant LAL",blocked

# From patent US20260256960A1
